Experimental findings from patent publication US20070203066A1, “Compositions and methods for inhibiting cellular proliferation” (priority 2005, published 2007) are described below.

pIC50: −log10 of the molar value. Non-standard residues stand in square brackets, D forms with d. Primed or numbered codes have the meaning given here. No end group written: not given here. Ida = iminodiacetic acid linker, its two carboxyls bind the Lys side-chain amines of two peptides, giving a homodimer; Ida(3) = iminodiacetic acid linker, Lys side-chain amines bound to its two carboxyl groups; Dip = N[C@H](C(=O)O)C(c1ccccc1)c1ccccc1; Cha = N[C@@H](CC1CCCCC1)C(=O)O; Phg = N[C@H](C(=O)O)c1ccccc1 Bounds are passed on as bounds.

For the test, the system named is HUVECs. In kind it is cell-based. The following applies: HUVEC proliferation, bFGF at 10 ng/ml or VEGF at 5 ng/ml, 48 hours, BrdU incorporation; read-out: IC50 on HUVECs. Put shortly:
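Proliferation read-out: BrdU incorporation after 48-hour culture (37 ° C, 5% CO2) with graded peptide doses. Cells were in EBM with 2% FCS at 5,000 per well, driven by VEGF (5 ng/ml) or bFGF (10 ng/ml), added after ≥12-hour attachment.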
As a reminder, the pIC50 is the negative decadic logarithm of the IC50, by convention in mol/L. Take “305 (Ac-RRRRRQAVRIIK(Ida)VN; also: homodimer via Ida linker on Lys12 side chain) [compound 305]”: the negative-log IC50 (pIC50) was over 5.00.
The value for “306 (Ac-RRRRRQAVRIK(Ida)FV; also: homodimer via Ida linker on Lys11 side chain) [compound 306]” was over 5.00.
Then “307 (Ac-RRRRRQAVRK(Ida)IFV; also: homodimer via Ida linker on Lys10 side chain) [compound 307]”, with over 5.00; and “308 (Ac-RRRRRQAVK(Ida)IIFV; also: homodimer via Ida linker on Lys9 side chain) [compound 308]”, with over 5.00.
“309 (Ac-RRRRRQAK(Ida)RIIFV; also: homodimer via Ida linker on Lys8 side chain) [compound 309]”: the negative logarithm of the IC50 (pIC50) is over 5.00.
With “310 (Ac-RRRRRQK(Ida)VRIIFV; also: homodimer via Ida linker on Lys7 side chain) [compound 310]”, the pIC50 was over 5.00.
Turning to 311 (Ac-RRRRRQAVRITITFK) [compound 311], the pIC50 was over 5.00.
Regarding “313 (Ac-RARRRQAVAIGFK(Ida)-NH2; also: homodimer via Ida linker on Lys13 side chain) [compound 313]”, the negative-log IC50 (pIC50) is 4.52 to 5.00.
“314 (Ac-RARRRQAVAIPFK(Ida)-NH2; also: homodimer via Ida linker on Lys13 side chain) [compound 314]”: the pIC50 is under 4.52.
In the case of “316 (Ac-ARRRRQAVHIYFK(Ida)-NH2; also: homodimer via Ida linker on Lys13 side chain) [compound 316]”, the pIC50 was over 5.00.
With “317 (Ac-ARRRRQHVAIYFK(Ida)-NH2; also: homodimer via Ida linker on Lys13 side chain) [compound 317]”, the pIC50 is over 5.00.
Consider “318 (XRRRRQAVAIYFK; Xaa = Acylated Histidine; The side chain of Lysine at position 13 is covalently bound to an Ida linker forming a homodimer of residues 1 through 13.) [compound 318]”, for which the negative logarithm of the IC50 (pIC50) is over 5.00.
In the case of “319 (Ac-ARRRRQHVHIYFK(Ida)-NH2; also: homodimer via Ida linker on Lys13 side chain) [compound 319]”, the pIC50 was over 5.00.
Then “320 (XRRRRQAVHIYFK; Xaa = Acylated Histidine; The side chain of Lysine at position 13 is covalently bound to an Ida linker forming a homodimer of residues 1 through 13.) [compound 320]”, with over 5.00.
Regarding “321 (XRRRRQHVAIYFK; Xaa = Acylated Histidine; The side chain of Lysine at position 13 is covalently bound to an Ida linker forming a homodimer of residues 1 through 13.) [compound 321]”, the pIC50 was over 5.00.
With “322 (XRRRRQHVHIYFK; Xaa = Acylated Histidine; The side chain of Lysine at position 13 is covalently bound to an Ida linker forming a homodimer of residues 1 through 13.) [compound 322]”, the negative logarithm of the IC50 (pIC50) is over 5.00.
As for “323 (Ac-RHRRRQHVRIYFK(Ida)-NH2; also: homodimer via Ida linker on Lys13 side chain) [compound 323]”, the pIC50 was over 5.00.
Then “324 (Ac-RRHRRQHVRIYFK(Ida)-NH2; also: homodimer via Ida linker on Lys13 side chain) [compound 324]”, with over 5.00; and “325 (Ac-RRRHRQHVRIYFK; not fully specified (residue 13, C-terminus); also: homodimer via Ida linker on Lys13 side chain) [compound 325]”, with over 5.00; and “326 (Ac-RRRRHQHVRIYFK; not fully specified (residue 13, C-terminus); also: homodimer via Ida linker on Lys13 side chain) [compound 326]”, with over 5.00.
“327 (XHRRRQHVRIYFK; not fully specified; Xaa = Acylated Histidine; The side chain of Lysine at position 13 is covalently bound to an Ida linker forming a homodimer of residues 1 through 13.) [compound 327]”: the pIC50 was over 5.00.
In the case of “328 (XRHRRQHVRIYFK; not fully specified; Xaa = Acylated Histidine; The side chain of Lysine at position 13 is covalently bound to an Ida linker forming a homodimer of residues 1 through 13.) [compound 328]”, the negative-log IC50 (pIC50) is over 5.00.
With “329 (Ac-ARRRRQRVAIYFK-NH2; not fully specified (residue 13); also: homodimer via Lys13 side chain, GP3 linker) [compound 329]”, the pIC50 was over 5.00.
The value for “330 (XRRHRQHVRIYFK; not fully specified; Xaa = Acylated Histidine; The side chain of Lysine at position 13 is covalently bound to an Ida linker forming a homodimer of residues 1 through 13.) [compound 330]” was over 5.00; that for “332 (XRRRHQHVRIYFK; not fully specified; Xaa = Acylated Histidine; The side chain of Lysine at position 13 is covalently bound to an Ida linker forming a homodimer of residues 1 through 13.) [compound 332]” was over 5.00; that for “333 (Ac-RHHRRQHVRIYFK; not fully specified (residue 13, C-terminus); also: homodimer via Ida linker on Lys13 side chain) [compound 333]” was over 5.00.
With “334 (Ac-ARRRRQRVAIYFK; not fully specified (residue 13, C-terminus); also: homodimer via Ida linker on Lys13 side chain, acetate salt) [compound 334]”, the pIC50 is over 5.00.
On to “335 (Ac-RHRRHQHVRIYFK; not fully specified (residue 13, C-terminus); also: homodimer via Ida linker on Lys13 side chain) [compound 335]”, for which the pIC50 is over 5.00.
Turning to “336 (Ac-ARRRRQRVAIYFK-NH2; not fully specified (residue 13); also: homodimer via Lys13 side chain, Ida-PEG 20 kDa linker) [compound 336]”, the negative logarithm of the IC50 (pIC50) is over 5.00.
Consider “337 (Ac-RHRHRQHVRIYFK(Ida(3))-NH2; also: homodimer via Lys13 side chain, Ida linker (Ida amino group Boc)) [compound 337]”, for which the pIC50 was over 5.00.
Regarding “338 (Ac-RHRRRQHVHIYFK(Ida(3))-NH2; also: homodimer via Lys13 side chain, Ida linker (Ida amino group Boc)) [compound 338]”, the negative-log IC50 (pIC50) is over 5.00.
As to “339 (Ac-RRHHRQHVRIYFK(Ida(3))-NH2; also: homodimer via Lys13 side chain, Ida linker (Ida amino group Boc)) [compound 339]”, the negative logarithm of the IC50 (pIC50) was over 5.00.
For the substance “340 (Ac-RRHRHQHVRIYFK(Ida(3))-NH2; also: homodimer via Lys13 side chain, Ida linker (Ida amino group Boc)) [compound 340]”, the pIC50 is over 5.00.
Then “341 (Ac-RRHRHQRVHIYFK(Ida(3))-NH2; also: homodimer via Lys13 side chain, Ida linker (Ida amino group Boc)) [compound 341]”, with over 5.00; and “343 (Ac-ARRRRQRVAIY[Phg]K-NH2; not fully specified (residue 13); also: homodimer via Lys13 side chain, Ida linker) [compound 343]”, with over 5.00.
Then “344 (Ac-ARRRRQRVAIY[Cha]K-NH2; not fully specified (residue 13); also: homodimer: Lys13 side chains joined by Ida (iminodiacetic acid) linker) [compound 344]”, with over 5.00.
Regarding “345 (Ac-ARRRRQRVAIYWK-NH2; not fully specified (residue 13); also: homodimer of residues 1-13 via Ida linker on Lys13 side chain) [compound 345]”, the negative-log IC50 (pIC50) was over 5.00.
“346 (Ac-ARRRRQRVAIYEK-NH2; not fully specified (residue 13); also: homodimer of residues 1-13 via Ida linker on Lys13 side chain) [compound 346]”: the pIC50 was under 4.52.
Then “347 (Ac-ARRRRQRVAIYTK-NH2; not fully specified (residue 13); also: homodimer of residues 1-13 via Ida linker on Lys13 side chain) [compound 347]”, with under 4.52; and “348 (Ac-ARRRRQRVAIYHK-NH2; not fully specified (residue 13); also: homodimer of residues 1-13 via Ida linker on Lys13 side chain) [compound 348]”, with under 4.52; and “349 (Ac-ARRRRQRVAIYPK-NH2; not fully specified (residue 13); also: homodimer of residues 1-13 via Ida linker on Lys13 side chain) [compound 349]”, with under 4.52.
Then “350 (Ac-ARRRRQRVAIY[Dip]K-NH2; not fully specified (residue 13); also: homodimer of residues 1-13 via Ida linker on K13 side chain) [compound 350]”, with over 5.00.
